Data on three compounds can be found in patent publication US20140050669A1, “USE OF RADIOGRAPHIC CONTRAST AGENTS FOR DETECTING DENTAL CARIES” (Creighton University, priority 2011, published 2014).

A short description of assay [1]: x-ray contrast imaging of identified dental caries before and after topical intra-oral composition. Particulars: 9 M sodium iodide in distilled water. As for the experimental part:
A radiographic contrast imaging analysis using x-ray imaging was performed, comparing the imaging of identified dental caries before and after administration of a topical intra-oral composition comprising sodium iodide and distilled water according to the methods of the current invention. Specifically, an x-ray image of a tooth with identified dental caries was performed, without administering the topical intra-oral composition. This image was used as a control for determining the ability of typical x-ray images to detect dental caries in a patient. Subsequently, the same tooth was administered a composition comprising sodium iodide and distilled water, with the composition having a sodium iodide concentration of 9 molar. After administration of the composition to the tooth, x-ray images were obtained 20 seconds after administration and 16 minutes after administration. Further, an x-ray image of the tooth was taken 14 days after administration of the composition to determine if the composition continued to reside in the dental carious lesion. The images obtained are found in FIG. 1.

The nature of assay [2]: x-ray imaging of cavitated surface versus sound healthy surface. Particulars: 9 M sodium iodide solution, x-ray 2 minutes after administration. The procedure: An experiment was performed to test the ability of the topical intra-oral compositions and methods to differentiate between cavitated surfaces (dental caries) and healthy, sound surfaces. Specifically, an x-ray image of a tooth with an identified cavitated surface on one side of the tooth and a sound surface on the other side was performed, without administering the topical intra-oral composition. This image was used as a control for determining the ability of the topical intra-oral compositions to selectively absorb into cavitated surfaces, rather than sound surfaces. Subsequently, the same tooth was administered a composition comprising sodium iodide and distilled water, with the composition having a sodium iodide concentration of 9 molar. After administration of the composition to the tooth, an x-ray image was obtained 2 minutes after administration. The results are illustrated in FIG. 2.

The nature of assay [3]: comparison of contrast agents applied in turn to the same tooth cavity, radiographic analysis. The procedure:
A 9M solution of sodium iodide (an ionic contrast agent) and a 76% solution of iopamidol (a non-ionic contrast agent) were administered. Each compound was applied in turn under identical conditions to the same tooth cavity and the tooth was radiographically analyzed as discussed above. After application and testing of each compound, the contrast was washed out from the tooth, and the tooth was tested radiographically to ensure there was no contrast remaining.
A barium sulfate solution comprising 1 gram of barium sulfate in 0.5 ml distilled water was administered. The compound was applied, and the tooth was analyzed and compared to other contrast agents and to the control treated tooth as discussed in Example 4. After application and testing of each compound, the contrast was washed out from the tooth and the tooth was tested radiographically to ensure there was no contrast remaining.

Assay [4] can be described thus: x-ray imaging of cavitated lesion versus non-cavitated lesion. Particulars: 9 M sodium iodide solution, x-ray 3 minutes after administration. The procedure: An experiment was performed to test the ability of the topical intra-oral compositions and methods to differentiate between cavitated surfaces (a cavity) requiring treatment and non-cavitated lesions not requiring treatment. Specifically, an x-ray image of a tooth with an identified cavitated surface on the right side of the tooth and a non-cavitated lesion on the other side was performed, without administering the topical intra-oral composition. This image was used as a control for determining the ability of the topical intra-oral compositions to selectively absorb into cavitated lesions, rather than non-cavitated lesions. Subsequently, the same tooth was administered a composition comprising sodium iodide and distilled water, with the composition having a sodium iodide concentration of 9 molar. After administration of the composition to the tooth, an x-ray image was obtained 3 minutes after administration. The results are illustrated in FIG. 3.

The conditions of assay [5]: barium sulfate 96% w/w, radiograph 15 seconds after application. The text has this:
The radiograph was taken 15 seconds after barium sulfate (96% w/w) was applied.

For `[I-].[Na+]` [sodium iodide], the “radiographic image of dental caries versus control image” value in assay [1] (x-ray 20 seconds after administration) and in assay [1] (x-ray 16 minutes after administration) was “enhanced radiographic image of dental caries” each time. Further, in assay [1] (x-ray 14 days after administration), the “x-ray appearance of composition in the carious lesion” value is on record as “altered x-ray appearance”. Moreover, the “radiographic image of dental caries (cavitated surface)” value in assay [2] (cavitated surface) is recorded as “enhanced radiographic image of dental caries”. Also, the “effect on imaging of sound tooth surfaces” value in assay [2] (sound surface) is listed as “does not affect the imaging of sound tooth surfaces”. Further, in assay [3] (9M solution of sodium iodide), the “radiographic contrast enhancement of tooth cavity” value (from here on “radiographic contrast enhancement”) is “produced radiographic contrast enhancement revealing tooth cavitation”. In addition, the “radiographic image of cavitated lesion (cavity)” value in assay [4] (cavitated lesion) is “enhanced radiographic image of a cavitated lesion”. In assay [4] (non-cavitated lesion), the “effect on imaging of non-cavitated lesions” value was “does not affect the imaging of non-cavitated lesions”.
In the case of `O=S(=O)([O-])[O-].[Ba+2]` [barium sulfate], in assay [5], the “radiographic image of shallow cavity” value is reported as “image showing a shallow cavity”. Besides, the “radiographic contrast enhancement” value in assay [3] (1 gram of barium sulfate in 0.5 ml distilled water) is recorded as “produced radiographic contrast enhancement revealing tooth cavitation”.
For the compound `C[C@H](O)C(=O)Nc1c(I)c(C(=O)NC(CO)CO)c(I)c(C(=O)NC(CO)CO)c1I` [iopamidol], the “radiographic contrast enhancement” value in assay [3] (76% solution of iopamidol) is reported as “produced radiographic contrast enhancement revealing tooth cavitation”.
